Data reported in paper PMC9736855, “Discovery of 3-Amino-1H-pyrazole-Based Kinase Inhibitors to Illuminate the Understudied PCTAIRE Family” (International Journal of Molecular Sciences, 2022).

What was measured:
[1] = molecular target: T1, FGFR3 (Homo sapiens, UniProt P22607); assay: DSF; type: binding
T1 construct: purchased in-house DSF panel (SGC Frankfurt)
Method: (§2) Recombinant protein kinase domains with a concentration of 2 μM were mixed with a 10 μM compound solution in DMSO, 20 mM HEPES, pH 7.5, and 500 mM NaCl. SYPRO Orange (5000×, Invitrogen) was added as a fluorescence probe (1 µl per mL). Subsequently, temperature-dependent protein unfolding profiles were measured, using the QuantStudio™ 5 realtime PCR machine (Thermo Fisher, Waltham, MA, USA). […] The temperature was raised with a step rate of 3 °C per minute. Data points were analyzed with the internal software (Thermal Shift SoftwareTM Version 1.4, Thermo Fisher) using the Boltzmann equation to determine the inflection point of the transition curve [56]. Differences in melting temperature are given as ΔTm values in °C. Measurements were performed in duplicates.

[2] = molecular target: T2, PIM3 (Homo sapiens, UniProt Q86V86); assay: DSF; type: binding;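 further: compound tested at 10 µM with 2 µM protein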
T2 construct: purchased in-house DSF panel (SGC Frankfurt)
Method: as §2

[3] = molecular target: T3, CDK11A/Cyclin K (Homo sapiens, UniProt Q9UQ88); assay: NanoBRET; type: cell-based; details: read-out: NanoBRET EC50 ± SEM CDK11A/Cyclin K
T3 sequence (Q9UQ88 1-783): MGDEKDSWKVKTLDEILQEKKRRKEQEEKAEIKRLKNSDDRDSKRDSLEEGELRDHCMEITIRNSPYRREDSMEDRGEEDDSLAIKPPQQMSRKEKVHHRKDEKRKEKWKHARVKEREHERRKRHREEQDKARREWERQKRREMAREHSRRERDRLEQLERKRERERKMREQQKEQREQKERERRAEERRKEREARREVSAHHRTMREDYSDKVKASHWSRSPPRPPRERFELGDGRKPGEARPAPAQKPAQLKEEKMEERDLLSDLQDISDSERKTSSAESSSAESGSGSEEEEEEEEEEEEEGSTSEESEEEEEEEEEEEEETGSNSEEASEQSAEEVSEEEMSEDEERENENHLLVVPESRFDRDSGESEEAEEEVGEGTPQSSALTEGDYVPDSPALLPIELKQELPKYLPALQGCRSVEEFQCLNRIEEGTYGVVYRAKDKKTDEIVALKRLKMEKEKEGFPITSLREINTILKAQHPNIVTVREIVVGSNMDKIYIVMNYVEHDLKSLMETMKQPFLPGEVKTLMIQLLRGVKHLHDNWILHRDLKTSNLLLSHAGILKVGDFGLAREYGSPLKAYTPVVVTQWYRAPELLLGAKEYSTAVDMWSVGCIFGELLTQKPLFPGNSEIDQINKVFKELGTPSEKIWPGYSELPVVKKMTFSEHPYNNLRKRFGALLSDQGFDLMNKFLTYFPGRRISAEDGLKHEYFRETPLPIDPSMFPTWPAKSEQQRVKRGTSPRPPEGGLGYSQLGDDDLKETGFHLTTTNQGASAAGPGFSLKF
Method: (§1) The assay was performed as described previously. In brief: Full-length kinases were obtained as plasmids cloned in frame with a terminal NanoLuc-fusion (Promega, Madison, WI, USA), as specified in table (Table S6). Plasmids were transfected into HEK293T cells using FuGENE HD (Promega, E2312) and proteins were allowed to express for 20h. Serially diluted inhibitor and NanoBRET Kinase Tracer (Promega) at a concentration determined previously as the KD,app (Table S5) were pipetted into white 384-well plates (Greiner 781207) using an Echo acoustic dispenser (Labcyte, San Jose, CA, USA). The corresponding protein-transfected cells were added and reseeded at a density of 2.5 × 10^5 cells/mL after trypsinization and resuspending in Opti-MEM without phenol red (Life Technologies, Carlsbad, CA, USA). The system was allowed to equilibrate for 2 h at 37 °C/5% CO2 prior to BRET measurements. To measure BRET, NanoBRET NanoGlo Substrate + Extracellular NanoLuc Inhibitor (Promega, N2540) was added as per the manufacturer’s protocol, and filtered luminescence was measured on a PHERAstar plate reader (BMG Labtech, Ortenberg, Germany) equipped with a luminescence filter pair (450 nm BP filter (donor) and 610 nm LP filter (acceptor)). Competitive displacement data were then graphed using GraphPad Prism 9 software using a normalized 3-parameter curve fit with the following equation: Y = 100/(1 + 10^(X–LogEC50)).

[4] = molecular target: T4, CDK11A/Cyclin L2 (Homo sapiens, UniProt Q9UQ88); assay: NanoBRET; type: cell-based; details: read-out: NanoBRET EC50 ± SEM CDK11A/Cyclin L2
T4 sequence (Q9UQ88 1-783): T3 sequence (Q9UQ88 1-783)
T4 sequence (Q96S94 1-520 partner): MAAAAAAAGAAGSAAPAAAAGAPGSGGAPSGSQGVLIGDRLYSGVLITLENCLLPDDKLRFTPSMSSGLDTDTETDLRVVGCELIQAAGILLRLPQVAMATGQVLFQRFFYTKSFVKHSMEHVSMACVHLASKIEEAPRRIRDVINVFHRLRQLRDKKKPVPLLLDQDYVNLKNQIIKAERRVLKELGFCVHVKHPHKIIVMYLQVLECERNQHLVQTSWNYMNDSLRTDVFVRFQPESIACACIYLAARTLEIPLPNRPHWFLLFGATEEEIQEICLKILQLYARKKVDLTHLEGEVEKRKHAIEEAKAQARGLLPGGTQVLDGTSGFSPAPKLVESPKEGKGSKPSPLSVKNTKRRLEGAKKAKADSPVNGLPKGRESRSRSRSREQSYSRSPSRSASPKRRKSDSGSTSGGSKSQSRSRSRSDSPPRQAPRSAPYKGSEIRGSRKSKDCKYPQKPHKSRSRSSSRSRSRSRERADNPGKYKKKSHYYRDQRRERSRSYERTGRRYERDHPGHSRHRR
Method: as §1

[5] = molecular target: T5, CDK13/Cyclin K (Homo sapiens, UniProt Q14004); assay: NanoBRET; type: cell-based; details: read-out: NanoBRET EC50 ± SEM CDK13/Cyclin K
T5 construct: Full-length kinases were obtained as plasmids cloned in frame with a terminal NanoLuc-fusion; CS1810C93 (CCNK); host or cells: HEK293T
Method: as §1

[6] = molecular target: CDK18/Cyclin Y (Homo sapiens, UniProt Q07002); assay: NanoBRET; type: cell-based; details: read-out: NanoBRET EC50 ± SEM CDK18/Cyclin Y
Method: as §1

[7] = molecular target: T6, CDK4/Cyclin D1 (Homo sapiens, UniProt P11802); assay: NanoBRET; type: cell-based; details: read-out: NanoBRET EC50 ± SEM CDK4/Cyclin D1
T6 construct: Full-length kinases were obtained as plasmids cloned in frame with a terminal NanoLuc-fusion; CS1810C118 (CCND1); host or cells: HEK293T
Method: as §1

[8] = molecular target: T7, CDK6/Cyclin D1 (Homo sapiens, UniProt Q00534); assay: NanoBRET; type: cell-based; details: read-out: NanoBRET EC50 ± SEM CDK6/Cyclin D1
T7 construct: Full-length kinases were obtained as plasmids cloned in frame with a terminal NanoLuc-fusion; CS1810C118 (CCND1); host or cells: HEK293T
Method: as §1

[9] = molecular target: T8, CDK9/Cyclin T1 (Homo sapiens, UniProt P50750); assay: NanoBRET; type: cell-based; details: read-out: NanoBRET EC50 ± SEM CDK9/Cyclin T1
T8 construct: Full-length kinases were obtained as plasmids cloned in frame with a terminal NanoLuc-fusion; CS1810C177 (CCNT1); host or cells: HEK293T
Method: as §1

T6 sequence (P11802 whole entry, the tested form may be a part): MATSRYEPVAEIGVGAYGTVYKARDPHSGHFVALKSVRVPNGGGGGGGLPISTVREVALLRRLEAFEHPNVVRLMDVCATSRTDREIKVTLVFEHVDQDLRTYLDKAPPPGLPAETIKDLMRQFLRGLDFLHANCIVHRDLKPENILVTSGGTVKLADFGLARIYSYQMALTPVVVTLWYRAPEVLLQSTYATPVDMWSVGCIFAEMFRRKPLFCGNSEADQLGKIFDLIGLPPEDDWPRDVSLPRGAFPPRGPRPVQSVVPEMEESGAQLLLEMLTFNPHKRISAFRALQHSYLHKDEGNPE
T6 sequence (P24385 whole entry partner, the tested form may be a part): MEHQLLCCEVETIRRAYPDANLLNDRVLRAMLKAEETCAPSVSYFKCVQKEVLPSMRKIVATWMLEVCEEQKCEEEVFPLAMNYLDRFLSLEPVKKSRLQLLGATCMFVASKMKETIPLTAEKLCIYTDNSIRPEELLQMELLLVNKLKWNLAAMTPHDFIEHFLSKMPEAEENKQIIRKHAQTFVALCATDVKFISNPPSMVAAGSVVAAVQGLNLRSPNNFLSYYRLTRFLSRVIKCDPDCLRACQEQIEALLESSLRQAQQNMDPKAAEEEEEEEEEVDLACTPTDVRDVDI
T5 sequence (Q14004 whole entry, the tested form may be a part): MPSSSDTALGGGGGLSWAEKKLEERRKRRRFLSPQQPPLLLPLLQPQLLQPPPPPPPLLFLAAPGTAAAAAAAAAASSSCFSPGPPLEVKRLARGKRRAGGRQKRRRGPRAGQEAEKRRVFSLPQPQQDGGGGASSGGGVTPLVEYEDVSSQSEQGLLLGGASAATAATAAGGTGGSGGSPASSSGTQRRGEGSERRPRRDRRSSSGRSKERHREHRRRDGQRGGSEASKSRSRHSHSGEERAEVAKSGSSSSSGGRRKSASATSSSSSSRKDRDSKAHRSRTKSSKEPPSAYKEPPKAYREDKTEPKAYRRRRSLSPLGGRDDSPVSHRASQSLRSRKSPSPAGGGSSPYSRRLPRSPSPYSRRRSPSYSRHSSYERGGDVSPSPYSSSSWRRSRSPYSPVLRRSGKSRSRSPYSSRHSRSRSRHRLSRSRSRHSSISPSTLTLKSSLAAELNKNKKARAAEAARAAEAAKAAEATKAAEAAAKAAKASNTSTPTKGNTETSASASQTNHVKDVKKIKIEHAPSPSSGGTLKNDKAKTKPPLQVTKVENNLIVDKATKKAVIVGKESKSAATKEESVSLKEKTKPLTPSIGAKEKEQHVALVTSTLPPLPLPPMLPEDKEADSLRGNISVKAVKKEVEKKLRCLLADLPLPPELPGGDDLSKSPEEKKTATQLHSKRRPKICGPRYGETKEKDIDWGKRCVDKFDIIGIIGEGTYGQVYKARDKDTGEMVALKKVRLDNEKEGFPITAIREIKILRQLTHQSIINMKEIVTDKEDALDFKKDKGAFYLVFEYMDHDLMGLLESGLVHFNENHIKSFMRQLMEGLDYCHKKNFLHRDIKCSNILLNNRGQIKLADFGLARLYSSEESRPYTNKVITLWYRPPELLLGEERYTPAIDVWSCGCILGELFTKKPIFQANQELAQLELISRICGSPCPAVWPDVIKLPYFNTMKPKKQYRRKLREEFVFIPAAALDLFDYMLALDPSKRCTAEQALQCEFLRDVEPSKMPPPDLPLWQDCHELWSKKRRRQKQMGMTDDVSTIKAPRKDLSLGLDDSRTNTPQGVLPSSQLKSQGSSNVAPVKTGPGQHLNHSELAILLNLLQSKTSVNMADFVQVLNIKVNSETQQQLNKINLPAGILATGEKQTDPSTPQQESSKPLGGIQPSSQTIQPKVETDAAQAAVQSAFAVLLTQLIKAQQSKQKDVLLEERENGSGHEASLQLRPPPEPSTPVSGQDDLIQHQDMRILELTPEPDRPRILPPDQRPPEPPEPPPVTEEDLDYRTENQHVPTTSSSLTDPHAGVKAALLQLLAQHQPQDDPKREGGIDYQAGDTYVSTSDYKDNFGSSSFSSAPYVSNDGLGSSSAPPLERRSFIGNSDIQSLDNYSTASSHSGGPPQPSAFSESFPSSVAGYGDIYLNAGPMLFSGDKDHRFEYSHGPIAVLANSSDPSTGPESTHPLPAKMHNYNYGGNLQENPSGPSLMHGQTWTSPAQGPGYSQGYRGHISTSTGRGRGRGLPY
T5 sequence (O75909 whole entry partner, the tested form may be a part): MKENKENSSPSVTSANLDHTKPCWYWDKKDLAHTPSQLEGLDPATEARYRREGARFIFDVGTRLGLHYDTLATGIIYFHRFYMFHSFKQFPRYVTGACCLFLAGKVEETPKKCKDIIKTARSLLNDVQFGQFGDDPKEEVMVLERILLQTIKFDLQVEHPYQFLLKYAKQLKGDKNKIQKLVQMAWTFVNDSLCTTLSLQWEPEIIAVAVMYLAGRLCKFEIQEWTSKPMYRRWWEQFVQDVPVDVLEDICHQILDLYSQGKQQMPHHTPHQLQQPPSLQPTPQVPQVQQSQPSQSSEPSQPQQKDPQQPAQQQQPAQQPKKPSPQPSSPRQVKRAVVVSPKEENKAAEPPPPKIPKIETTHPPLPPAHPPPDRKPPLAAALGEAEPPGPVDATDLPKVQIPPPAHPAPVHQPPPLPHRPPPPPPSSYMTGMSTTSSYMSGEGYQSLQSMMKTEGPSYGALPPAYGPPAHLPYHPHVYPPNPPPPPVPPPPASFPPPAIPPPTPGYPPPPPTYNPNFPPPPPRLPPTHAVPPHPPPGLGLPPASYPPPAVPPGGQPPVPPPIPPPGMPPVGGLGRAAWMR
T7 sequence (Q00534 whole entry, the tested form may be a part): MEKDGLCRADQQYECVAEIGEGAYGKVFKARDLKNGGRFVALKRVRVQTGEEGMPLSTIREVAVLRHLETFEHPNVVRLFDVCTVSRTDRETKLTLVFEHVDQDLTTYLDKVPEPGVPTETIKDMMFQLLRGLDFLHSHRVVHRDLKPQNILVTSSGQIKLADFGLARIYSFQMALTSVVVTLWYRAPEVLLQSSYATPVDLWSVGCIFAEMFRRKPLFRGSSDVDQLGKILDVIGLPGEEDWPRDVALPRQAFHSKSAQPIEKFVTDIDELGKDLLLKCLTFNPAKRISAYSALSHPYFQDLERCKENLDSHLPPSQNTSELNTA
T7 sequence (P24385 whole entry partner, the tested form may be a part): as the sequence (P24385 whole entry partner, the tested form may be a part) above
Chain of CDK18/Cyclin Y (Q07002 whole entry): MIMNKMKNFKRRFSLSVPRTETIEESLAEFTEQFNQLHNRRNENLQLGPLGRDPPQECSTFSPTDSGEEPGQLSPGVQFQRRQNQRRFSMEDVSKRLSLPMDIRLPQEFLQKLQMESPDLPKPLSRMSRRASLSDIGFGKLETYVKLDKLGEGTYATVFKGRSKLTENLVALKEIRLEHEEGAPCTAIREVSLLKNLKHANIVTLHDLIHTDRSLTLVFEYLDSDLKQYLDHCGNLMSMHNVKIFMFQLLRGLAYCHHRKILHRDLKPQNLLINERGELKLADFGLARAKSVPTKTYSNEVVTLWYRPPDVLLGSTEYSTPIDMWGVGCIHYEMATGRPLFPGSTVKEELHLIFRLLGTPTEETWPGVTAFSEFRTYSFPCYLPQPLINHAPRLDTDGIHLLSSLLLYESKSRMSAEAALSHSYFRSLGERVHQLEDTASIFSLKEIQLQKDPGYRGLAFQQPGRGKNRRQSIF
Chain of CDK18/Cyclin Y (Q8ND76 2-341 partner limits assumed): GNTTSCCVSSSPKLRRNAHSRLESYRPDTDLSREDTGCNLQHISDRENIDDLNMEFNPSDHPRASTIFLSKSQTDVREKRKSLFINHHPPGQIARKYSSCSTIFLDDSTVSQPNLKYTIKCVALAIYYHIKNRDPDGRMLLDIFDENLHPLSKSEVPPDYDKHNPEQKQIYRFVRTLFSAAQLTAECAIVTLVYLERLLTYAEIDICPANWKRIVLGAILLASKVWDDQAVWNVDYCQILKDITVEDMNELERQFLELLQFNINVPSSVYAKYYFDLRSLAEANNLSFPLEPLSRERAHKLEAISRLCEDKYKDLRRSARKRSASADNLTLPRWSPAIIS
T1 sequence (P22607 455-768): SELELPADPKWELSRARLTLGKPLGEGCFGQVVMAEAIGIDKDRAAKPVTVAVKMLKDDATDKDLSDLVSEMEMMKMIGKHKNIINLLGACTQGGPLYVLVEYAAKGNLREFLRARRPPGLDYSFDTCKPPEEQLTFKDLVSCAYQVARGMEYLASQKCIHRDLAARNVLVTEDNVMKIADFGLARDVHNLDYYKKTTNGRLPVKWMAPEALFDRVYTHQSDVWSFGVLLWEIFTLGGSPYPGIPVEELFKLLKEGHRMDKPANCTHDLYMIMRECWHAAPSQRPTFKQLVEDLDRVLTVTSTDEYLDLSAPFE

SMILES	ΔTm FGFR3 [1] [°C]	ΔTm PIM3 [2] [°C]	EC50 [3] [µM]	EC50 [4] [µM]	EC50 [5] [µM]	EC50 [6] [µM]	EC50 [7] [µM]	EC50 [8] [µM]	EC50 [9] [µM]
COC(=O)c1cc(Nc2ccnc(NCc3ccc(NC(=O)OC(C)(C)C)cc3)n2)[nH]n1 [21i, methyl 5-((2-((4-((tert-butoxycarbonyl)amino)benzyl)amino)pyrimidin-4-yl)amino)-1H-pyrazole-3-carboxylate]	1.2	-0.4	21.1 ± 11	20.5 ± 11.8	24.2 ± 5.88	1.62 ± 0.287	10.9 ± 3.92	7.45 ± 1.74	6.87 ± 2.19
CC(C)(C)OC(=O)Nc1ccc(CNc2nccc(Nc3cc(C(=O)OC(C)(C)C)[nH]n3)n2)cc1 [43d, tert-butyl 3-((2-((4-((tert-butoxycarbonyl)amino)benzyl)amino)pyrimidin-4-yl)amino)-1H-pyrazole-5-carboxylate]	–	-1.6	7.98 ± 3.74	3.46 ± 1.84	–	0.121	2.14 ± 0.75	1.74 ± 0.206	0.805 ± 0.24
COC(=O)c1cc(Nc2ccnc(NCCOCCNC(=O)OC(C)(C)C)n2)[nH]n1 [21d, methyl 5-((2-((2-(2-((tert-butoxycarbonyl)amino)ethoxy)ethyl)amino)pyrimidin-4-yl)amino)-1H-pyrazole-3-carboxylate]	0.6	0.0	–	–	–	–	–	–	–
CC(C)OC(=O)c1cc(Nc2ccnc(NCc3ccc(NC(=O)OC(C)(C)C)cc3)n2)n[nH]1 [42d, isopropyl 3-((2-((4-((tert-butoxycarbonyl)amino)benzyl)amino)pyrimidin-4-yl)amino)-1H-pyrazole-5-carboxylate]	–	-1.1	3.1 ± 1.35	2.09 ± 0.599	3.83 ± 2.28	0.128 ± 0.0104	1.6 ± 0.409	0.959 ± 0.391	0.408 ± 0.14
N#CCc1ccc(Nc2nccc(Nc3cc(C4CC4)[nH]n3)n2)cc1 [compound 1, reference compound]	9.8	3.8	0.999 ± 0.476	0.76 ± 0.46	0.0661 ± 0.0199	0.025 ± 0.0089	0.0936 ± 0.0236	0.0105 ± 0.0038	0.0865 ± 0.0109
